The supplement of paper PMC10307832

Experiments:
Test in all cases: relative viability (nuclei count vs DMSO), 5 days (fraction); higher = more cells survive
MLN4924 + Foretinib = compound: NS(=O)(=O)OC[C@@H]1C[C@@H](n2ccc3c(N[C@H]4CCc5ccccc54)ncnc32)C[C@@H]1O [MLN4924] + COc1cc2c(Oc3ccc(NC(=O)C4(C(=O)Nc5ccc(F)cc5)CC4)cc3F)ccnc2cc1OCCCN1CCOCC1 [Foretinib] (partner 0.25 µM)
Outline: (§1)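 Medians of duplicate plates are given as relative viability. That measure is the nuclei count in treated wells divided by the count in vehicle wells. Counts were taken on 4× images of lung cancer cell lines in 1536-well plates, 5 days after pin-tool dosing the day after seeding with one drug alone or a fixed anchor-drug dose plus five library-drug doses (not always all listed) in √10 steps.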

Carboplatin + Decitabine = compound: C1CC(C1)(C(=O)O)C(=O)O.[NH2-].[NH2-].[Pt+2] [Carboplatin] + Nc1ncn([C@H]2C[C@H](O)[C@@H](CO)O2)c(=O)n1 [Decitabine] (partner 2 µM)
Outline: as §1

Carboplatin + OSI-027 = compound: C1CC(C1)(C(=O)O)C(=O)O.[NH2-].[NH2-].[Pt+2] [Carboplatin] + COc1cccc2cc(-c3nc([C@H]4CC[C@H](C(=O)O)CC4)n4ncnc(N)c34)[nH]c12 [OSI-027] (partner 0.5 µM)
Outline: as §1

GSK126 + Decitabine = compound: CC[C@H](C)N1C=C(C2=C(C=C(C=C21)C3=CN=C(C=C3)N4CCNCC4)C(=O)NCC5=C(C=C(NC5=O)C)C)C [GSK126] + Nc1ncn([C@H]2C[C@H](O)[C@@H](CO)O2)c(=O)n1 [Decitabine] (partner 2 µM)
Outline: as §1

| Cell Line | relative viability (MLN4924 + Foretinib; first compound 0.04 µM) | relative viability (MLN4924 + Foretinib; first compound 0.1265 µM) | relative viability (MLN4924 + Foretinib; first compound 0.4 µM) | relative viability (MLN4924 + Foretinib; first compound 1.265 µM) | relative viability (MLN4924 + Foretinib; first compound 4 µM) | relative viability (Carboplatin + Decitabine; first compound 0.08 µM) | relative viability (Carboplatin + Decitabine; first compound 0.253 µM) | relative viability (Carboplatin + Decitabine; first compound 0.8 µM) | relative viability (Carboplatin + Decitabine; first compound 2.53 µM) | relative viability (Carboplatin + Decitabine; first compound 8 µM) | relative viability (Carboplatin + OSI-027; first compound 0.08 µM) | relative viability (Carboplatin + OSI-027; first compound 0.253 µM) | relative viability (Carboplatin + OSI-027; first compound 0.8 µM) | relative viability (Carboplatin + OSI-027; first compound 2.53 µM) | relative viability (Carboplatin + OSI-027; first compound 8 µM) | relative viability (GSK126 + Decitabine; first compound 0.08 µM) | relative viability (GSK126 + Decitabine; first compound 0.253 µM) | relative viability (GSK126 + Decitabine; first compound 0.8 µM) | relative viability (GSK126 + Decitabine; first compound 2.53 µM) | relative viability (GSK126 + Decitabine; first compound 8 µM) |
| --- | --- | --- | --- | --- | --- | --- | --- | --- | --- | --- | --- | --- | --- | --- | --- | --- | --- | --- | --- | --- |
| 201T | 1.23 | 0.842 | 0.561 | 0.194 | 0.175 | 0.869 | 0.822 | 0.865 | 0.791 | 0.76 | 0.828 | 0.749 | 0.824 | 0.68 | 0.349 | 0.865 | 0.899 | 0.916 | 0.86 | 0.946 |
| A549 | 0.972 | 0.8 | 0.508 | 0.0828 | 0.0301 | 0.259 | 0.338 | 0.279 | 0.231 | 0.18 |  |  |  |  |  | 0.224 | 0.299 | 0.26 | 0.253 | 0.272 |
| A-427 | 0.742 | 0.236 | 0.264 | 0.185 | 0.178 | 0.593 | 0.562 | 0.571 | 0.527 | 0.512 | 0.449 | 0.531 | 0.479 | 0.499 | 0.39 | 0.586 | 0.63 | 0.565 | 0.559 | 0.568 |
| ABC-1 | 1.07 | 1.07 | 0.301 | 0.189 | 0.248 | 1.02 | 1.12 | 1.01 | 0.931 | 0.52 | 0.551 | 0.509 | 0.547 | 0.335 | 0.299 | 1.14 | 0.907 | 0.885 | 1 | 1 |
| BEN | 0.491 | 0.307 | 0.219 | 0.169 | 0.129 | 0.87 | 0.714 | 0.691 | 0.634 | 0.599 | 0.295 | 0.304 | 0.266 | 0.287 | 0.292 | 0.834 | 0.658 | 0.78 | 0.901 | 0.744 |
| CAL-12T | 1.01 | 1.03 | 0.463 | 0.422 | 0.181 |  |  |  |  |  | 0.696 | 0.603 | 0.735 | 0.779 | 0.526 |  |  |  |  |  |
| COR-L23 | 0.985 | 0.844 | 0.644 | 0.299 | 0.141 | 0.402 | 0.514 | 0.412 | 0.361 | 0.21 | 0.894 | 0.903 | 0.618 | 0.466 | 0.231 | 0.467 | 0.373 | 0.389 | 0.448 | 0.433 |
| COR-L 105 | 0.697 | 0.654 | 0.396 | 0.292 | 0.258 | 0.648 | 0.611 | 0.687 | 0.515 | 0.398 | 0.835 | 0.776 | 0.696 | 0.62 | 0.537 | 0.591 | 0.629 | 0.653 | 0.575 | 0.667 |
| Calu-6 | 0.699 | 0.322 | 0.209 | 0.0838 | 0.0789 |  |  |  |  |  |  |  |  |  |  |  |  |  |  |  |
| ChaGo-K-1 | 0.785 | 0.503 | 0.336 | 0.244 | 0.22 | 0.563 | 0.527 | 0.464 | 0.413 | 0.388 | 0.614 | 0.473 | 0.527 | 0.42 | 0.316 | 0.526 | 0.506 | 0.525 | 0.537 | 0.544 |
| EBC-1 | 0.109 | 0.15 | 0.147 | 0.082 | 0.0997 |  |  |  |  |  |  |  |  |  |  |  |  |  |  |  |
| EKVX | 0.718 | 0.748 | 0.59 | 0.135 | 0.155 | 0.4 | 0.331 | 0.389 | 0.307 | 0.283 | 0.739 | 0.736 |  | 0.674 | 0.683 | 0.343 | 0.383 | 0.39 | 0.351 | 0.301 |
| EMC-BAC-2 | 0.959 | 0.593 | 0.248 | 0.224 | 0.282 | 1.01 | 0.944 | 0.999 | 0.922 | 0.716 | 0.423 | 0.372 | 0.364 | 0.374 | 0.375 | 1.05 | 0.974 | 0.878 | 0.893 | 0.936 |
| EPLC-272H | 0.582 | 0.216 | 0.0552 | 0.0953 | 0.109 | 0.402 | 0.403 | 0.361 | 0.366 | 0.355 | 0.299 | 0.287 | 0.291 | 0.259 | 0.247 | 0.441 | 0.349 | 0.39 | 0.358 | 0.361 |
| H3255 | 0.799 | 0.746 | 0.34 | 0.285 | 0.278 | 0.775 | 0.504 | 0.687 | 0.622 | 0.421 | 0.591 | 0.513 | 0.529 | 0.519 | 0.488 | 0.479 | 0.628 | 0.665 | 0.502 | 0.684 |
| HARA | 0.838 | 0.537 | 0.83 | 0.0708 | 0.0645 | 0.681 | 0.439 | 0.549 | 0.448 | 0.469 | 0.619 | 0.644 | 0.476 | 0.462 | 0.385 | 0.628 | 0.629 | 0.403 | 0.519 | 0.402 |
| HCC-15 | 0.688 | 0.219 | 0.183 | 0.109 | 0.0915 | 0.657 | 0.627 | 0.588 | 0.587 | 0.452 | 0.833 | 0.664 | 0.689 | 0.635 | 0.439 | 0.739 | 0.656 | 0.685 | 0.59 | 0.609 |
| HCC-44 |  |  |  |  |  | 0.968 | 0.915 | 0.949 | 0.923 | 0.863 | 0.53 | 0.572 | 0.5 | 0.484 | 0.292 | 0.918 | 1.06 | 1.06 | 0.89 | 0.971 |
